Patent publication US20230063457A1, “DNA-PK INHIBITING COMPOUNDS” (Provincial Health Services Authority, priority 2019, published 2023)

How the values were obtained:
DNA-PK kinase = DNA-PK kinase (Homo sapiens, UniProt P78527); experiment: Inhibition of DNA-PK kinase activity (ADP-Glo); format: biochemical; details: averaged values over all measurements on all batches; 150 μM ATP, 1 hour at 25° C.
Procedure: Inhibition of DNA-PK Kinase Activity Assay buffer was 50 mM Hepes pH 7.5 containing 0.1 mg/ml BSA (albumin from bovine serum), 50 μM DTT (dithiothreitol), 20 mM MgCl2 and 10 μg/ml calf thymus DNA (activation buffer). Kinase reaction was carried out in OptiPlate 384 plates (PerkinElmer 6007299). All compounds tested were dissolved in dimethyl sulfoxide (DMSO) and further dilutions were made in assay buffer. Final DMSO concentration was 1% (v/v). Pre-incubation consisted of compound (1% DMSO in control and blank wells) and 24 ng/well DNA-PK kinase to allow the compounds to bind the enzyme (with buffer in the blank wells) for 15 minutes; after this time 150 μM Adenosine-5′-triphosphate (ATP) and 0.2 μg/μl DNA-PK substrate were added to commence the kinase reaction. Incubations were carried out for 1 hour at 25° C. Kinase activity was determined by using ADP-Glo™ reagent from Promega according to the manufacturer's instructions. The light generated was measured using a luminometer (EnVision, PerkinElmer). Signal obtained in the wells containing blank samples was subtracted from all other wells and IC50 values were determined by fitting a sigmoidal curve to % inhibition of control versus Log10 compound concentration.

[1] = target: T1, Phospho-DNA-PK in FaDu Cells (Homo sapiens, UniProt P78527); experiment: Effect of compounds on phospho-DNA-PK in FaDu cells (MesoScale sandwich immunoassay); format: cell-based; details: 1 hour pre-incubation, 1 μg/ml Neocarzinostatin 2 hours, averaged values, read-out: MSD FaDu IC50
T1 construct: host or cells: FaDu
Procedure: Effect of Compounds on Phospho-DNA-PK in FaDu Cells
All compounds tested were dissolved in DMSO and further dilutions were made in culture medium. Final DMSO concentration was 0.3% (v/v). The human FaDu cells (ATCC) were cultured in MEM medium supplemented with Glutamax and 10% fetal calf serum (PAA). Cells were routinely maintained at densities of 0.2×10^6 cells per ml at 37° C. in a humidified 5% CO2, 95% air atmosphere. Cells were passaged twice a week, splitting back to obtain the low density. Cells were seeded in 96 well plates (Corning 3904) at 1×10^6 cells per ml media in a volume of 50 μl per well. Seeded cells were incubated at 37° C. in a humidified 5% CO2, 95% air atmosphere for 24 hours. Compounds were added (25 μl) to the cells and pre-incubated for 1 hour. 1 μg/ml DNA-damaging agent Neocarzinostatin (NCS) was added (25 μl) to a final volume of 100 μl and incubated for 2 hours at 37° C. in a humidified 5% CO2, 95% air atmosphere. After this period of time plates were removed from the incubator and the 100 μl dilutions were removed from the wells gently, prior to the addition of 75 μl cold RIPA lysis buffer with protease and phosphatase inhibitors to achieve the cells lysis, followed by shaking on a plate shaker at 4° C. for 30 minutes. At the end of this incubation, lysate was assessed for phospho-DNA-PK levels by sandwich immune-assay carried out in anti-mouse antibody coated MesoScale plates. […] Signal obtained in the wells containing blank samples was subtracted from all other wells and IC50 values were determined by fitting a sigmoidal curve to % inhibition of control versus Logo compound concentration.

| Compound | IC50 (DNA-PK kinase) [nM] | IC50 [1] [nM] |
| --- | --- | --- |
| N#C[C@H]1CC[C@@H](Oc2nc(N3CCOCC3)cc3ncccc23)CC1 [Example 4] | 37 | 1830 |
| c1cnc(NCCCCOc2nc(N3CCOCC3)cc3ncccc23)nc1 [Example 8] | 279 | 6660 |
| CCCCc1nc2cc(N3CCOCC3)nc(O[C@H]3CC[C@@H](n4cc(F)cn4)CC3)c2cc1O [Parent compound 175] | 18 | 464 |
| CC1CN(c2ncn[nH]2)CCC1Oc1nc(N2CCOCC2)cc2ncccc12 (centres unmarked) [Example 157] | 160 | 3000 |
| c1cnc2cc(N3CCOCC3)nc(OCC3CCN(c4ncn[nH]4)CC3)c2c1 [Parent compound 154] | 26 | 1070 |
| C[C@@H]1COCCN1c1cc2ncccc2c(O[C@H]2CC[C@@H](c3nc[nH]n3)CC2)n1 [Example 69] | 261 | 5050 |
| C[C@H]1CN(c2ncn[nH]2)CC[C@H]1Oc1nc(N2CCOCC2)cc2ncccc12 [Parent compound 161] | 125 | 2890 |
| c1cnc2cc(N3CCOCC3)nc(O[C@H]3CC[C@@H](n4ccnn4)CC3)c2c1 [Example 79] | 6 | 373 |
| c1cnc2cc(N3CCOCC3)nc(N[C@H]3CC[C@@H](c4nnc[nH]4)CC3)c2c1 [Example 58] | 27 | 1590 |
| N#Cc1cccc(-c2ccnc(NCC3CCN(c4nc(N5CCOCC5)cc5ncccc45)CC3)n2)n1 [Example 119] | 136 | 2410 |
| c1cnc2cc(N3CCOCC3)nc(OCC3CN(c4ncn[nH]4)C3)c2c1 [Parent compound 151] | 82 | 1690 |
| Fc1cnn([C@H]2CC[C@@H](Oc3nc(N4CCOCC4)cc4ncccc34)CC2)c1 [Example 78] | 4 | 195 |
| Fc1c[nH]c([C@H]2CC[C@@H](Oc3nc(N4CCOCC4)cc4ncccc34)CC2)n1 [Example 76] | 11 | 143 |
| c1cnc2cc(N3CCOCC3)nc(O[C@H]3C[C@@H](c4ncc[nH]4)C3)c2c1 [Example 87] | 51 | 1160 |
| Brc1cnc2cc(N3CCOCC3)nc(O[C@H]3CC[C@@H](n4ccnc4)CC3)c2c1 [Example 54] | 3 | 182 |
| Oc1cnc2cc(N3CCOCC3)nc(O[C@H]3CC[C@@H](n4cc(F)cn4)CC3)c2c1 [Example 163] | 2 | 134 |
| NC(=O)[C@H]1CC[C@H](COc2nc(N3CCOCC3)cc3ncccc23)CC1 [Example 57] | 120 | 2460 |
| c1cnc(N[C@H]2[C@@H]3CN(c4nc(N5CCOCC5)cc5ncccc45)C[C@@H]32)nc1 [Example 12] | 70 | 2550 |
| c1cnc(NCc2cnn(-c3nc(N4CCOCC4)cc4ncccc34)c2)nc1 [Example 24] | 213 | 9350 |
| c1cnc2cc(N3CCOCC3)nc(NCC3CCN(c4nnc[nH]4)CC3)c2c1 [Parent compound 152] | 19 | 5790 |
| c1cnc2cc(N3CCOCC3)nc(O[C@H]3CC[C@@H](n4cncn4)CC3)c2c1 [Example 80] | 7 | 240 |
| c1cnc2cc(N3CCOCC3)nc(O[C@H]3CC[C@@H](c4ncc[nH]4)CC3)c2c1 [Example 75] | 5 | 57 |
| Cc1noc([C@H]2CC[C@@H](Oc3nc(N4CCOCC4)cc4ncccc34)CC2)n1 [Example 5] | 21 | 1370 |
| NC(=O)[C@H]1CC[C@@H](COc2nc(N3CCOCC3)cc3ncccc23)CC1 [Example 6] | 74 | 2010 |
| Cc1nnc([C@H]2CC[C@@H](Oc3nc(N4CCOCC4)cc4ncccc34)CC2)[nH]1 [Example 70] | 1 | 113 |
| Oc1cnc2cc(N3CCOCC3)nc(O[C@H]3CC[C@@H](c4nccs4)CC3)c2c1 [Example 168] | 5 | 272 |

Second part, the compound after the results:

| IC50 (DNA-PK kinase) [nM] | IC50 [1] [nM] | Compound |
| --- | --- | --- |
| 73 | 4470 | CN(C)S(=O)(=O)n1ccnc1C1CCN(c2nc(N3CCOCC3)cc3ncccc23)CC1 [Example 14] |
| 39 | 743 | c1cnc(NCC2CCN(c3nc(N4CCOCC4)cc4ncccc34)CC2)nc1 [Example 2] |
| 164 | 7960 | c1cnc(NCCC2CN(c3nc(N4CCOCC4)cc4ncccc34)C2)nc1 [Example 21] |
| 15 | 724 | NC(=O)c1ccnc(NCC2CCN(c3nc(N4CCOCC4)cc4ncccc34)CC2)n1 [Example 99] |
| 143 | 3520 | FC(F)(F)c1cnc(NCC2CCN(c3nc(N4CCOCC4)cc4ncccc34)CC2)nc1 [Example 121] |
| 139 | 18600 | c1cnc(NC2CCN(c3nc(N4CCOCC4)cc4ncccc34)CC2)nc1 [Example 16] |
| 108 | 2150 | OCCC1CCN(c2nc(N3CCOCC3)cc3ncccc23)CC1 [Example 15] |
| 185 | 4360 | c1ccc(NCC2CCN(c3nc(N4CCOCC4)cc4ncccc34)CC2)nc1 [Example 122] |
| 71 | 2840 | c1cnc(NC2CCC3CN(c4nc(N5CCOCC5)cc5ncccc45)CC32)nc1 (centres unmarked) [Example 13] |
| 45 | 3700 | N#Cc1cnc(NCC2CCN(c3nc(N4CCOCC4)cc4ncccc34)CC2)nc1N [Example 103] |
| 66 | 2370 | N#Cc1cnc(NCC2CCN(c3nc(N4CCOCC4)cc4ncccc34)CC2)nc1 [Example 107] |
| 32 | 2360 | COC(=O)c1cc(N)nc(NCC2CCN(c3nc(N4CCOCC4)cc4ncccc34)CC2)n1 [Example 100] |
| 82 | 832 | c1cnc(NC2CC3(CCN(c4nc(N5CCOCC5)cc5ncccc45)C3)C2)nc1 (mixture of isomers) [Example 1] |
| 112 | 2030 | CCOC(=O)c1cnc(NCC2CCN(c3nc(N4CCOCC4)cc4ncccc34)CC2)nc1 [Example 112] |
| 159 | 8870 | c1cnc(NC2CCCCN(c3nc(N4CCOCC4)cc4ncccc34)C2)nc1 (centres unmarked) [Example 20] |
| 69 | 3380 | N#Cc1ccnc(NCC2CCN(c3nc(N4CCOCC4)cc4ncccc34)CC2)n1 [Example 108] |
| 117 | 2890 | CS(=O)(=O)N1CCN(c2nc(N3CCOCC3)cc3ncccc23)CC1 [Example 144] |
| 30 | 2490 | c1cnc2cc(N3CCOCC3)nc(N3CCC(CNc4nnc[nH]4)CC3)c2c1 [Parent compound 153] |
| 51 | 1160 | CNC(=O)c1ccnc(NCC2CCN(c3nc(N4CCOCC4)cc4ncccc34)CC2)n1 [Example 105] |
| 149 | 4640 | c1cnc(NC2CCCN(c3nc(N4CCOCC4)cc4ncccc34)CC2)nc1 (centres unmarked) [Example 18] |
| 44 | 1310 | c1cnc(N2CCC(COc3nc(N4CCOCC4)cc4ncccc34)CC2)nc1 [Example 129] |
| 117 | 9670 | c1cnc2cc(N3CCOCC3)nc(N3CCC(CNc4cnccn4)CC3)c2c1 [Example 114] |
| 134 | 7860 | c1cnc2cc(N3CCOCC3)nc(OC3CCN(c4ncn[nH]4)CC3)c2c1 [Example 155] |
| 188 | 3840 | CC(=O)N1CCN(c2nc(N3CCOCC3)cc3ncccc23)CC1 [Example 84] |
| 140 | 3180 | c1cnc2cc(N3CCOCC3)nc(N3CCC(CNc4ccncn4)CC3)c2c1 [Example 120] |
| 125 | 1930 | Cc1cc(C)nc(NCC2CCN(c3nc(N4CCOCC4)cc4ncccc34)CC2)n1 [Example 117] |
| 50 | 3020 | Fc1cnc(NCC2CCN(c3nc(N4CCOCC4)cc4ncccc34)CC2)nc1 [Example 104] |
| 88 | 2140 | COc1ccnc(NCC2CCN(c3nc(N4CCOCC4)cc4ncccc34)CC2)n1 [Example 111] |
| 32 | 2130 | Cc1cc(C(N)=O)nc(NCC2CCN(c3nc(N4CCOCC4)cc4ncccc34)CC2)n1 [Example 101] |
